From patent US6372493B1, “Hormone-secreting cells maintained in long-term culture” (Pacific Biomedical Research, Inc. [Cell Mart, Inc.], priority 1991, dated 2002)

Legend:
[1] = system: Human pancreas cell cultures, 55 generations; assay: Time course of insulin secretion in response to glucose (Example 18); format: cell-based
Method: Human pancreas cell cultures from Example 16 were maintained in continuous culture through 55 generations, at which time they had been in culture for 12 months.
Two hours prior to the experiment, the cells were centrifuged at 1070 rpm for 5 minutes and then resuspended in glucose-poor medium consisting of 1 part DMSS plus 6 parts PDM. The cells were incubated in glucose-poor medium (glucose-starved) at a concentration of about 1.5×10^6 cells/ml in 10 ml culture flasks for two hours at 37°.
The cells were then centrifuged and resuspended in the experimental medium consisting of one part DMSS and six parts PDM. The glucose concentration in the experimental medium alone was 1.1 mM. To this medium was added glucose in the concentrations shown in Table 12 below, and the cells were incubated for various times.

[2] = system: human pancreas whole islets; assay: Insulin secretion of cultured whole islets in response to glucose, RIA (Example 24); format: cell-based; settings: +10 mM Glucose (Total 12 mM Glucose)
Method: The whole islets were isolated and obtained as described in Example 22. Prior to this experiment they had been in culture for 3¾ months in OCZEM-M and were passage generation 11. Insulin secretion was measured by RIA (Diagnostic Products Corporation).
The cultured whole islets were washed in basal medium [RPMI (5×@ 20 minutes) before the experiment. Then individual whole islets were cultured in the basal level medium containing 2 mM glucose described in Example 22 for 3½ hours (1 islet/1 ml). Each individual islet was then transferred to 1 ml of the basal medium containing an additional 10 mM glucose (to yield a total glucose concentration of 12 mM) and cultured for another 3½ hours. A comparison of the resulting amounts of secreted insulin is shown below in Table 16. Each individual islet was placed in a separate culture dish after the experiment so that future tests on insulin secretion could be measured on identified islets.

[3] = system: daughter-islet cells from human pancreas whole islets; assay: Indirect immunofluorescence for insulin after glucose stimulation of daughter-islets (Example 22); format: cell-based; settings: 12 mM glucose 3 hours
Method: The first assessment was made after three months in culture at the eighth passage generation and the second assessment was made after the sixteenth passage generation and eight months in continuous culture. On the average the daughter-islet cells were passed every 10-14 days. To test the response of the cells to glucose stimulation, the cultures were given a glucose poor basal medium. The basal medium as set forth in Formula VI below was a RPMI-1640 derivative containing 2 mM glucose. The cells remained in glucose poor medium for a period of 4 hours. The cells were first washed five times for 10 minutes each in the Formula VI medium prior to a 3 hour final incubation in the same basal medium. Subsequently the cultures were placed in the same medium, except that its total glucose concentration was 12 mM (instead of 2 mM glucose) for 3 hours and then prepared for indirect immunofluorescence to detect the presence of insulin.
The materials and partial protocol used in this example were as follows:
1. Primary antibody: Guinea pig monoclonal anti-insulin (human) [Peninsula Laboratories, Inc. IFK-7303G] working dilution used was 1:200.
2. Secondary antibody: Rabbit anti-guinea pig IgG (whole molecule) affinity isolated—TRITC conjugate (Sigma T-7153).
3. Negative control: 1 ml of the primary antiserum of the Guinea pig monoclonal anti-insulin (human) was added to 50 μgm of synthetic human insulin (Peninsula Laboratories, Inc.).
4. Nuclear counterstain: Hoechst 33258 (Sigma Chemical Co.), 0.1% was used.
The procedures followed for fixing the cells and the amount of primary and secondary antibodies used are given in detail in the description of procedures for Example 23. The control experiment was exposure only to the glucose poor basal medium.

[4] = system: cultured pancreatic islet cells (daughter-islets); assay: Immunofluorescence for insulin after BUDR labelling and glucose stimulation (Example 23); format: cell-based, human; settings: 12 mM glucose 6 hours
Method: The tests were done on the same long term cultured daughter-islets described in Example 22, after 3 months of culture (8 passage generations) and after 8 months of cell culture (16 passage generations). Cultures of the daughter-islets were exposed to 30 μgm/ml BUDR for 5 days. The cultures were then placed in normal culture medium (OCZEM-M) for another 5 days. Cultures were then given the same glucose poor basal medium described in Formula VI for 4 hours. Subsequently medium containing 12 mM glucose, described in Example 22, was provided for 6 hours. Cells were immediately fixed and prepared for immunofluorescence. A FITC conjugated secondary antibody to detect BUDR incorporation during DNA synthesis and a TRITC conjugated secondary antibody to detect insulin synthesis in response to glucose stimulation were used according to the following protocol.
d. Cell preparation used procedures to swell the nucleus and preferentially fix the chromosomes in order to maximize the ability to detect BUDR incorporation. The procedures are commonly used to prepare human embryonic cells for florescence in situ hybridization (FISH).
9. Primary antibodies were added, 100 ul @ and the slides were incubated in a moist chamber for 18 hours at 20° C.
11. Secondary antibodies were added to EVERY slide (including the negative controls) in very dim light, 100 ul @ and then the slides were incubated in the dark for 60 minutes at room temperature.
16. After 24 hours the preparations were photographed with Kodak Ektar 100 using Zeiss optics and fluorescence filters (No 2 for Hoechst, No 9 for FITC and No 15 for TRITC).

`O=C[C@H](O)[C@@H](O)[C@H](O)[C@H](O)CO` [glucose, D(+)glucose] was tested, and the Insulin secreted ([1]; 1 mM glucose added, 1 hr) was 275 μIU Insulin secreted/1.5 milli, the Insulin secreted ([1]; 1 mM glucose added, 2 hr) was 363 μIU Insulin secreted/1.5 milli and the Insulin secreted ([1]; 1 mM glucose added, 3 hr) was 451 μIU Insulin secreted/1.5 milli. The Insulin secreted ([1]; 1 mM glucose added, 5 hr) was 564 μIU Insulin secreted/1.5 milli, the Insulin secreted ([1]; 1 mM glucose added, 7 hr) was 582 μIU Insulin secreted/1.5 milli and the Insulin secreted ([1]; 1 mM glucose added, 24 hr) was 812 μIU Insulin secreted/1.5 milli. For the same compound, the Insulin secreted ([1]; 5.6 mM glucose added, 1 hr) was 3413 μIU Insulin secreted/1.5 milli, the Insulin secreted ([1]; 5.6 mM glucose added, 2 hr) was 982 μIU Insulin secreted/1.5 milli and the Insulin secreted ([1]; 5.6 mM glucose added, 3 hr) was 999 μIU Insulin secreted/1.5 milli. For the same compound, the Insulin secreted ([1]; 5.6 mM glucose added, 5 hr) was 2383 μIU Insulin secreted/1.5 milli, the Insulin secreted ([1]; 5.6 mM glucose added, 7 hr) was 2718 μIU Insulin secreted/1.5 milli and the Insulin secreted ([1]; 5.6 mM glucose added, 24 hr) was 2760 μIU Insulin secreted/1.5 milli. The Insulin secreted ([1]; 11.0 mM glucose added, 1 hr) was 3376 μIU Insulin secreted/1.5 milli, the Insulin secreted ([1]; 11.0 mM glucose added, 2 hr) was 1768 μIU Insulin secreted/1.5 milli and the Insulin secreted ([1]; 11.0 mM glucose added, 3 hr) was 2220 μIU Insulin secreted/1.5 milli. For the same compound, the Insulin secreted ([1]; 11.0 mM glucose added, 5 hr) was 1184 μIU Insulin secreted/1.5 milli, the Insulin secreted ([1]; 11.0 mM glucose added, 7 hr) was 3202 μIU Insulin secreted/1.5 milli and the Insulin secreted ([1]; 11.0 mM glucose added, 24 hr) was 1276 μIU Insulin secreted/1.5 milli. For the same compound, the Insulin secreted ([1]; 16.5 mM glucose added, 1 hr) was 3716 μIU Insulin secreted/1.5 milli, the Insulin secreted ([1]; 16.5 mM glucose added, 2 hr) was 2415 μIU Insulin secreted/1.5 milli and the Insulin secreted ([1]; 16.5 mM glucose added, 3 hr) was 2450 μIU Insulin secreted/1.5 milli. The Insulin secreted ([1]; 16.5 mM glucose added, 5 hr) was 2589 μIU Insulin secreted/1.5 milli, the Insulin secreted ([1]; 16.5 mM glucose added, 7 hr) was 4039 μIU Insulin secreted/1.5 milli and the Insulin secreted ([1]; 16.5 mM glucose added, 24 hr) was 2099 μIU Insulin secreted/1.5 milli. For the same compound, the Insulin secreted ([1]; 22 mM glucose added, 1 hr) was 2538 μIU Insulin secreted/1.5 milli, the Insulin secreted ([1]; 22 mM glucose added, 2 hr) was 1845 μIU Insulin secreted/1.5 milli and the Insulin secreted ([1]; 22 mM glucose added, 3 hr) was 2066 μIU Insulin secreted/1.5 milli. The Insulin secreted ([1]; 22 mM glucose added, 5 hr) was 1722 μIU Insulin secreted/1.5 milli, the Insulin secreted ([1]; 22 mM glucose added, 7 hr) was 1320 μIU Insulin secreted/1.5 milli and the Insulin secreted ([1]; 22 mM glucose added, 24 hr) was 989 μIU Insulin secreted/1.5 milli. The Insulin secreted ([1]; 33 mM glucose added, 1 hr) was 972 μIU Insulin secreted/1.5 milli, the Insulin secreted ([1]; 33 mM glucose added, 2 hr) was 345 μIU Insulin secreted/1.5 milli and the Insulin secreted ([1]; 33 mM glucose added, 3 hr) was 446 μIU Insulin secreted/1.5 milli. The Insulin secreted ([1]; 33 mM glucose added, 5 hr) was 657 μIU Insulin secreted/1.5 milli, the Insulin secreted ([1]; 33 mM glucose added, 7 hr) was 1109 μIU Insulin secreted/1.5 milli and the Insulin secreted ([1]; 33 mM glucose added, 24 hr) was 1073 μIU Insulin secreted/1.5 milli. The “glucose concentration of maximal response” value ([1]; glucose-starved cells, 1 to 24 hr) was 16.5 mM, the “Secreted Insulin” value ([2]; 2 Medium islets @) was 162.2 uIU/ml/hr and the “Secreted Insulin” value ([2]; 2 Very small islets @ (<0.5 μm)) was 84.5 uIU/ml/hr. For the same compound, the “Secreted Insulin” value ([2]; Extra large islet (>250 μm), 3½ hours) was 86.7 uIU/ml/hr, the “Secreted Insulin” value ([2]; Large islet (˜150 μm)) was 149.4 uIU/ml/hr and the “% of insulin positive cells” value ([3]; 3 mo. culture (8th passage generation)) was 88%. For the same compound, the “# cells positive for insulin (anti-insulin-RITC)” value ([3]; 3 mo. culture (8th passage generation), 388 cells screened) was 343, the “% of insulin positive cells” value ([3]; 8 mo. culture (16th passage generation)) was 87% and the “# cells positive for insulin (anti-insulin-RITC)” value ([3]; 8 mo. culture (16th passage generation), 195 cells screened) was 170. For the same compound, the Insulin positive ([4]; 8th passage generation (3 mo. culture)) was 86%, the “Insulin positive (number of cells)” value ([4]; 8th passage generation (3 mo. culture), 204 cells analyzed) was 175 and the Insulin positive ([4]; 16th passage generation (8 mos. culture)) was 90%. For the same compound, the “Insulin positive (number of cells)” value ([4]; 16th passage generation (8 mos. culture), 187 cells analyzed) was 168.
